Experiments:
Assay in all cases: -log10 GI50 (growth inhibition 50%) (-log10(M)); higher = more potent growth inhibition
21NT = tested on: 21NT
Procedure, shortened: (§1)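 Breast cancer cell lines were treated with each compound for 72 hours at nine doses in 1:5 serial dilution, in triplicate, and luminescence was read against a time-zero plate. A Gompertz curve was fitted to the dose-response data by nonlinear least squares to obtain GI50, the molar concentration giving the set level of growth inhibition, which is reported as its negative logarithm. The logarithm is base 10, and values equal to the top dose carry a < qualifier.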

21MT1 = tested on: 21MT1
Procedure, shortened: as §1

MDAMB453 = tested on: MDAMB453
Procedure, shortened: as §1

HCC1395 = tested on: HCC1395
Procedure, shortened: as §1

MCF10F = tested on: MCF10F
Procedure, shortened: as §1

SUM229PE = tested on: SUM229PE
Procedure, shortened: as §1

HCC1419 = tested on: HCC1419
Procedure, shortened: as §1

T47D_KBluc = tested on: T47D_KBluc
Procedure, shortened: as §1

SUM149PT = tested on: SUM149PT
Procedure, shortened: as §1

HCC202 = tested on: HCC202
Procedure, shortened: as §1

UACC893 = tested on: UACC893
Procedure, shortened: as §1

UACC812 = tested on: UACC812
Procedure, shortened: as §1

BT483 = tested on: BT483
Procedure, shortened: as §1

MDAMB468 = tested on: MDAMB468
Procedure, shortened: as §1

MDAMB436 = tested on: MDAMB436
Procedure, shortened: as §1

SUM102PT = tested on: SUM102PT
Procedure, shortened: as §1

T4 = tested on: T4
Procedure, shortened: as §1

HBL100 = tested on: HBL100
Procedure, shortened: as §1

ZR7530 = tested on: ZR7530
Procedure, shortened: as §1

S1 = tested on: S1
Procedure, shortened: as §1

-log10 GI50 (MDAMB453) | -log10 GI50 (HCC1395) | -log10 GI50 (HCC1419) | -log10 GI50 (T47D_KBluc) | -log10 GI50 (HCC202) | -log10 GI50 (BT483) | -log10 GI50 (MDAMB468) | -log10 GI50 (MDAMB436) | SMILES | -log10 GI50 (21NT) | -log10 GI50 (21MT1) | -log10 GI50 (MCF10F) | -log10 GI50 (SUM229PE) | -log10 GI50 (SUM149PT) | -log10 GI50 (UACC893) | -log10 GI50 (UACC812) | -log10 GI50 (SUM102PT) | -log10 GI50 (T4) | -log10 GI50 (HBL100) | -log10 GI50 (ZR7530) | -log10 GI50 (S1)
 | 7.35 | 5.72 |  | 7.76 | 6.44 | 7.61 | 7.92 | CC(C)Oc1ccc(C(=O)N[C@H](CNC(=O)CN(C)C)Cc2ccc(-c3cn4cccc([C@H](C)O)c4n3)cc2)cc1Cl |  |  | 6.29 | 7.42 | 7.17 | 7.7 | 7.94 | 5.18 | 7.2 | 7.33 | 7.68 | 6.37
5.59 | 5.37 | 4.73 | 5.31 |  |  |  |  | C[C@@H](Oc1cc(-c2cnn(C3CCNCC3)c2)cnc1N)c1c(Cl)ccc(F)c1Cl | 5.18 | 5.23 | 5.61 | 5.57 | 5.7 |  | 5.02 |  |  |  |  | 
8.02 | 8.37 | 5.13 |  | 8.99 | 5.35 | 8.41 | 7.86 | C[C@@H](Oc1cc(-n2cnc3ccc(CN4CCN(C)CC4)cc32)sc1C(N)=O)c1ccccc1C(F)(F)F |  |  | 7.11 | 7.68 | 7.96 | 8.15 | 4.99 | 5.38 | 7.88 | 8.7 | 5.21 | 7.95
7.2 |  | 7.72 | 6.48 |  |  |  |  | Cn1ncc(Cl)c1-c1cc(C(=O)N[C@H](CN)Cc2ccc(F)c(F)c2)oc1Cl | 5.35 | 5.35 | 5.45 | 5.59 | 7.42 |  | 7.18 |  |  |  |  | 

More lines, now with the values behind:

SMILES | -log10 GI50 (MDAMB453) | -log10 GI50 (HCC1395) | -log10 GI50 (HCC1419) | -log10 GI50 (T47D_KBluc) | -log10 GI50 (HCC202) | -log10 GI50 (BT483) | -log10 GI50 (MDAMB468) | -log10 GI50 (MDAMB436) | -log10 GI50 (21NT) | -log10 GI50 (21MT1) | -log10 GI50 (MCF10F) | -log10 GI50 (SUM229PE) | -log10 GI50 (SUM149PT) | -log10 GI50 (UACC893) | -log10 GI50 (UACC812) | -log10 GI50 (SUM102PT) | -log10 GI50 (T4) | -log10 GI50 (HBL100) | -log10 GI50 (ZR7530) | -log10 GI50 (S1)
CC(=O)NCC(=O)N1[C@@H]2CC[C@H]1c1ccc(Nc3ncc(C(F)(F)F)c(NC4CCC4)n3)cc12 | 5.62 | 5.96 | 5.19 | 5.4 |  |  |  |  | 5.54 | 5.78 | 6.28 | 6.1 | 6.08 |  |  |  |  |  |  | 
CCC[C@H](N[C@H]1CCc2cc(F)cc(F)c2C1)C(=O)Nc1cn(C(C)(C)CNCC(C)(C)C)cn1 | 4.59 | < 4.18 | < 4.18 | < 4.18 |  |  |  |  | < 4.18 | 4.38 | < 4.18 | < 4.18 | 6.88 |  | < 4.18 |  |  |  |  | 
COc1ccc(-c2cc3c(C)nc(N)nc3n([C@H]3CC[C@H](OCCO)CC3)c2=O)cn1 | 6.88 | 7.02 | 7.58 | 7.25 |  |  |  |  | 5.84 | 6.54 | 6.8 | 6.25 | 7.08 |  | 7.74 |  |  |  |  | 
N.N.[Cl][Pt][Cl] [Cisplatin] | 5.16 | 5.91 | 4.91 |  | 6.06 | 4.05 | 5.27 | 5 |  |  | 5.42 | 5.26 | 5.8 | 3.76 | 5.48 | < 3.3 | 5.02 | 5.05 | 5.58 | 5.45
CCN(CC)C(=S)SSC(=S)N(CC)CC [Disulfiram] | 6.84 | < 4.18 | < 4.18 | 7 | 4.84 | 4.18 |  |  | 4.72 | < 4.18 | < 4.18 | 4.5 |  |  | 7.03 |  |  |  | 7.05 | 
COC1=C2C[C@@H](C)C[C@H](OC)[C@H](O)[C@@H](C)/C=C(\C)[C@H](OC(N)=O)[C@@H](OC)/C=C\C=C(/C)C(=O)NC(=CC1=O)C2=O [Geldanamycin] | 7.69 | 7.42 | 7.49 |  | 8.4 | 6.84 | 7.74 | 7.15 |  |  | 8.14 | 7.91 | 8.22 | 8.14 | 7.97 | 8.48 | 8.22 | 7.6 | 8.15 | 8.82
COC(=O)Nc1nc2cc(C(=O)c3ccccc3)ccc2[nH]1 [Mebendazole] | 6.75 | 6.33 | 4.72 | 4.58 | 6.68 | 5.67 |  |  | 6.08 | 4.74 | 5.45 | 5.68 | 6.18 |  | 4.9 |  |  |  | 6.35 | 
Cc1c(O)cccc1C(=O)N[C@@H](CSc1ccccc1)[C@H](O)CN1C[C@H]2CCCC[C@H]2C[C@H]1C(=O)NC(C)(C)C [Nelfinavir] | 5.2 | < 4.48 | 5.66 | < 4.48 | 5.34 | 5.01 |  |  | 4.57 | 4.87 | 4.99 | 4.84 | 4.98 |  | < 4.48 |  |  |  | 5.74 | 

— the supplement of paper PMC3937590
